Measurements reported in ChEMBL document CHEMBL5678804 (Cancer Cell, 2011).
Active and inactive are the calls of the source. The rule behind the calls is not given here.

Tests used:
[1] = biological target: Testis-specific serine/threonine-protein kinase 2 (Homo sapiens, UniProt Q96PF2); assay: Inhibition of human wild type TSSK2 using RBER-CHKtide as substrate preincubated for 2 hrs followed by ATP addition and measured every 2 mins for […] by spectrophotometric analysis
[2] = biological target: Receptor-interacting serine/threonine-protein kinase 2 (Homo sapiens, UniProt O43353); assay: Inhibition of human wild type RIPK2 using RBER-CHKtide as substrate preincubated for 2 hrs followed by ATP addition and measured every 2 mins for […] by spectrophotometric analysis
[3] = biological target: Tyrosine-protein kinase CSK (Homo sapiens, UniProt P41240); assay: Inhibition of human wild type CSK using PolyEY as substrate preincubated for 2 hrs followed by ATP addition and measured every 2 mins for […] by spectrophotometric analysis
[4] = biological target: Mitogen-activated protein kinase 3 (Homo sapiens, UniProt P27361); assay: Inhibition of human wild type ERK1 using RBER-CHKtide as substrate preincubated for 2 hrs followed by ATP addition and measured every 2 mins for […] by spectrophotometric analysis
Mitogen-activated protein kinase 3, sequence (P27361 whole entry): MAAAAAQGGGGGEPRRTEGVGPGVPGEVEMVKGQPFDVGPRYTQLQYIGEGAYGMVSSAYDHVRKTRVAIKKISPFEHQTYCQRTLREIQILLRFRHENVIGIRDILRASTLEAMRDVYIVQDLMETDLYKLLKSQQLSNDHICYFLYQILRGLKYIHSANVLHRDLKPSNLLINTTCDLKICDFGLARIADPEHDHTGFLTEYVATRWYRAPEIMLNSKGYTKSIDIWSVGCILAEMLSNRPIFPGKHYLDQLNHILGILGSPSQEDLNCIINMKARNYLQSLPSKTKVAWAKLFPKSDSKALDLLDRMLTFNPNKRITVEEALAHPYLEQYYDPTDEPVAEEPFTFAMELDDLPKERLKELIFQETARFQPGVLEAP

[5] = biological target: Serine/threonine-protein kinase Sgk1 (Homo sapiens, UniProt O00141); assay: Inhibition of human wild type SGK1 using RBER-GSK3([…] to […]) as substrate preincubated for 2 hrs followed by ATP addition and measured every 2 mins for […] by spectrophotometric analysis
[6] = biological target: Aurora kinase C (Homo sapiens, UniProt Q9UQB9); assay: Inhibition of human wild type AuroraC using bio-4xCHKT as substrate preincubated for 2 hrs followed by ATP addition and measured every 2 mins for […] by spectrophotometric analysis
[7] = biological target: Hepatocyte growth factor receptor (Homo sapiens, UniProt P08581); assay: Inhibition of human wild type MET using Poly(Ala,Glu,Lys,Tyr)6:2:5:1 as substrate preincubated for 2 hrs followed by ATP addition and measured every 2 mins for […] by spectrophotometric analysis
[8] = biological target: Aurora kinase B (Homo sapiens, UniProt Q96GD4); assay: Inhibition of human wild type AuroraB using bio-4xCHKT as substrate preincubated for 2 hrs followed by ATP addition and measured every 2 mins for […] by spectrophotometric analysis
Aurora kinase B, sequence (Q96GD4 whole entry): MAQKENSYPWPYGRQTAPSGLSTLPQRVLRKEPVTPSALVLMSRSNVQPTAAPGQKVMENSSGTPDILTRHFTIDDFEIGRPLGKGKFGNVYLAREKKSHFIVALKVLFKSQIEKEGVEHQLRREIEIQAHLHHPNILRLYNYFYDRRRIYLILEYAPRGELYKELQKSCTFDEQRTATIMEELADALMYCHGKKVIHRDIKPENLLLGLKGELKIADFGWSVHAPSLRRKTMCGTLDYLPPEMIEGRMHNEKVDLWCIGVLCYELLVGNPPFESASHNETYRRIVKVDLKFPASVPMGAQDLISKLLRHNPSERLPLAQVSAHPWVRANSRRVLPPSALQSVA

[9] = biological target: Ephrin type-B receptor 3 (Homo sapiens, UniProt P54753); assay: Inhibition of human wild type EPHB3 using PolyEY as substrate preincubated for 2 hrs followed by ATP addition and measured every 2 mins for […] by spectrophotometric analysis
[10] = biological target: cAMP-dependent protein kinase catalytic subunit PRKX (Homo sapiens, UniProt P51817); assay: Inhibition of human wild type PRKX using RBER-GSK3([…] to […]) as substrate preincubated for 2 hrs followed by ATP addition and measured every 2 mins for […] by spectrophotometric analysis
[11] = biological target: Death-associated protein kinase 3 (Homo sapiens, UniProt O43293); assay: Inhibition of human wild type ZIPK using RBER-GSK3([…] to […]) as substrate preincubated for 2 hrs followed by ATP addition and measured every 2 mins for […] by spectrophotometric analysis
[12] = tested on: BaF3; assay: cells; conditions: Mus musculus, BaF3, 72 h
[13] = tested on: BaF3; assay: In vivo inhibition of BCR-ABL1 T315I signalling in mouse BaF3 cells harbouring BCR-ABL1 T315I mutant xenografted in Balb/c mouse model at 100 mg/kg, po administered as single dose measured after 8 hrs by flow cytometry analysis; format: functional, organism-based
[14] = biological target: Myosin-IIIb (Homo sapiens, UniProt Q8WXR4); assay: Inhibition of human MYO3B preincubated for 2 hrs followed by ATP addition and measured every 2 mins for […] by spectrophotometric analysis
Myosin-IIIb, sequence (Q8WXR4 whole entry): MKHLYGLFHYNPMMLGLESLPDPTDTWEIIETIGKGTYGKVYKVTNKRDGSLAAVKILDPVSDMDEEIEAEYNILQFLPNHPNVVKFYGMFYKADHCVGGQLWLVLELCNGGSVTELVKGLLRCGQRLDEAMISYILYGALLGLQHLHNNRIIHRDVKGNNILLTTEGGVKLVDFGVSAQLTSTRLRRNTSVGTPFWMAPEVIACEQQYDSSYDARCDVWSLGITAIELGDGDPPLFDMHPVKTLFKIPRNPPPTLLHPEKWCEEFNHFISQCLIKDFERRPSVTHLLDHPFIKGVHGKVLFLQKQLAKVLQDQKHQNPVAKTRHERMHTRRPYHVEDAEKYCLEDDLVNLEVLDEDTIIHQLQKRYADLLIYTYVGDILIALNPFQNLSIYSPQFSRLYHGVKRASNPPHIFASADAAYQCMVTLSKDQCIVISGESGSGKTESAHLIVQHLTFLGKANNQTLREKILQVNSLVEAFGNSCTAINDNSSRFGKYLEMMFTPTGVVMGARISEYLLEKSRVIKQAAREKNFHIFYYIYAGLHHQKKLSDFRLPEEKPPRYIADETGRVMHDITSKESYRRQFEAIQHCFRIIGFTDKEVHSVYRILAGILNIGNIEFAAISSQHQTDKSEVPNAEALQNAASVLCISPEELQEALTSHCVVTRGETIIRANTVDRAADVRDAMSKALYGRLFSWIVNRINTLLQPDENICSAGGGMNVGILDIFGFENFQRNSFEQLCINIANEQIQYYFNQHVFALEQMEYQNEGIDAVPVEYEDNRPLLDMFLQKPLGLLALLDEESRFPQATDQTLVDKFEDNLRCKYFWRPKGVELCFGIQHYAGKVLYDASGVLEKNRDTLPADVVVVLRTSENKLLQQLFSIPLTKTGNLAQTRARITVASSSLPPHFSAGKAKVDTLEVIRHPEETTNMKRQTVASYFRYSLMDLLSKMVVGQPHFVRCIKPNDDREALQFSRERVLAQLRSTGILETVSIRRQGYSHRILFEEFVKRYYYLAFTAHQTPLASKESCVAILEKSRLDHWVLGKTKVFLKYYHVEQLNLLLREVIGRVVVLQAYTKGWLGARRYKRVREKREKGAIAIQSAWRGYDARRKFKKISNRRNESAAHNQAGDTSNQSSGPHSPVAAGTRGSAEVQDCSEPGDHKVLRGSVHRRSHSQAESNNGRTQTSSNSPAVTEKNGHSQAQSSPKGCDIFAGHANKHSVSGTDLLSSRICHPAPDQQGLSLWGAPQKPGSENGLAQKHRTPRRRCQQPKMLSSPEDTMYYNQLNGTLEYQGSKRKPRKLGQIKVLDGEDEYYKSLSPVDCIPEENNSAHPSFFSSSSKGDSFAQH

[15] = biological target: Tyrosine-protein kinase JAK2 (Homo sapiens, UniProt O60674); assay: Inhibition of human wild type JAK2 using Poly(Ala,Glu,Lys,Tyr)6:2:5:1 as substrate preincubated for 2 hrs followed by ATP addition and measured every 2 mins for […] by spectrophotometric analysis
[16] = biological target: CDK3/Cyclin E (Homo sapiens, UniProt Q00526); assay: Inhibition of human wild type CDK3/cyclinE using RBER-CHKtide as substrate preincubated for 2 hrs followed by ATP addition and measured every 2 mins for […] by spectrophotometric analysis; format: protein-complex assay
[17] = biological target: Mitogen-activated protein kinase kinase kinase 14 (Homo sapiens, UniProt Q99558); assay: Inhibition of human wild type NIK using RBER-CHKtide as substrate preincubated for 2 hrs followed by ATP addition and measured every 2 mins for […] by spectrophotometric analysis
[18] = biological target: Protein kinase C delta type (Homo sapiens, UniProt Q05655); assay: Inhibition of human wild type PKC delta using 3xChocktide-PKC(19to 31) as substrate preincubated for 2 hrs followed by ATP addition and measured every 2 mins for […] by spectrophotometric analysis
[19] = biological target: MAP kinase-activated protein kinase 2 (Homo sapiens, UniProt P49137); assay: Inhibition of human wild type MAPKAPK2 using RBER-CHKtide as substrate preincubated for 2 hrs followed by ATP addition and measured every 2 mins for […] by spectrophotometric analysis
[20] = biological target: Tyrosine-protein kinase TXK (Homo sapiens, UniProt P42681); assay: Inhibition of human wild type TXK using RBER-CHKtide as substrate preincubated for 2 hrs followed by ATP addition and measured every 2 mins for […] by spectrophotometric analysis
[21] = biological target: Serine/threonine-protein kinase BRSK1 (Homo sapiens, UniProt Q8TDC3); assay: Inhibition of human wild type BRSK1 using RBER-CHKtide as substrate preincubated for 2 hrs followed by ATP addition and measured every 2 mins for […] by spectrophotometric analysis
Serine/threonine-protein kinase BRSK1, sequence (Q8TDC3 whole entry): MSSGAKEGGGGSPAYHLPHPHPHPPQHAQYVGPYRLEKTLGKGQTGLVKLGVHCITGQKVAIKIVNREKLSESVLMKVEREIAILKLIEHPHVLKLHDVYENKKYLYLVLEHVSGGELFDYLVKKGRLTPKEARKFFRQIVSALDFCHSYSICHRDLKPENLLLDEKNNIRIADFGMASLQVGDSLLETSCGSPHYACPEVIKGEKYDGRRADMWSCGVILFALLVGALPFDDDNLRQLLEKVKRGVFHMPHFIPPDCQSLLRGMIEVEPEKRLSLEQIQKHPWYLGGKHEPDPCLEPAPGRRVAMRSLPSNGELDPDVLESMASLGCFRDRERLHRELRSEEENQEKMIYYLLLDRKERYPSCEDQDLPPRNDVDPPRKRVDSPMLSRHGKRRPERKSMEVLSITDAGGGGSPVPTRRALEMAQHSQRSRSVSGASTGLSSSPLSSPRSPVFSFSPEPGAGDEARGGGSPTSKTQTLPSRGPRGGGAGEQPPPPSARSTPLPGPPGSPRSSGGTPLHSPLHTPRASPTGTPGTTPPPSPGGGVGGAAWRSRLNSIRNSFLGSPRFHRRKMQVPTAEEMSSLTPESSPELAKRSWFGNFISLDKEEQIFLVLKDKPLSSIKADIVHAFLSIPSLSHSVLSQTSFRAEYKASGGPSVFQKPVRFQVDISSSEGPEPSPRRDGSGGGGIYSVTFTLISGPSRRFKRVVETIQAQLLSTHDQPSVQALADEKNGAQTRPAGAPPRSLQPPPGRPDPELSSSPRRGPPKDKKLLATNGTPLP

[22] = biological target: Proto-oncogene tyrosine-protein kinase ROS (Homo sapiens, UniProt P08922); assay: Inhibition of human wild type ROS using Poly(Ala,Glu,Lys,Tyr)6:2:5:1 as substrate preincubated for 2 hrs followed by ATP addition and measured every 2 mins for […] by spectrophotometric analysis
[23] = biological target: Interleukin-1 receptor-associated kinase 4 (Homo sapiens, UniProt Q9NWZ3); assay: Inhibition of human wild type IRAK4 using RB-CTF as substrate preincubated for 2 hrs followed by ATP addition and measured every 2 mins for […] by spectrophotometric analysis
Interleukin-1 receptor-associated kinase 4, sequence (Q9NWZ3 whole entry): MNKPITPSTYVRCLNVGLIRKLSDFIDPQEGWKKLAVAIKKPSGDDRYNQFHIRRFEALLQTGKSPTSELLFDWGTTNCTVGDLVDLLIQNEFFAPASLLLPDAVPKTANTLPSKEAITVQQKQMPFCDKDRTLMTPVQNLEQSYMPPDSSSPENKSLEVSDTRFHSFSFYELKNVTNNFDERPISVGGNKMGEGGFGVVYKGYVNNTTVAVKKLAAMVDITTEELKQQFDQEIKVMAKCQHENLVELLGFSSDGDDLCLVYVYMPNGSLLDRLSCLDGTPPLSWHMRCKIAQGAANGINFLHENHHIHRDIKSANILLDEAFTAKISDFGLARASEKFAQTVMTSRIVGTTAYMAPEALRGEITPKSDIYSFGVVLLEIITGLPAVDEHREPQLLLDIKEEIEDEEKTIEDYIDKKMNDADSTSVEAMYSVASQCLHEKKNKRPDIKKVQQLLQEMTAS

[24] = biological target: Protein kinase C beta type (Homo sapiens, UniProt P05771); assay: Inhibition of human wild type PKCbeta1 using 3xChocktide-PKC(19to 31) as substrate preincubated for 2 hrs followed by ATP addition and measured every 2 mins for […] by spectrophotometric analysis
Protein kinase C beta type, sequence (P05771 whole entry): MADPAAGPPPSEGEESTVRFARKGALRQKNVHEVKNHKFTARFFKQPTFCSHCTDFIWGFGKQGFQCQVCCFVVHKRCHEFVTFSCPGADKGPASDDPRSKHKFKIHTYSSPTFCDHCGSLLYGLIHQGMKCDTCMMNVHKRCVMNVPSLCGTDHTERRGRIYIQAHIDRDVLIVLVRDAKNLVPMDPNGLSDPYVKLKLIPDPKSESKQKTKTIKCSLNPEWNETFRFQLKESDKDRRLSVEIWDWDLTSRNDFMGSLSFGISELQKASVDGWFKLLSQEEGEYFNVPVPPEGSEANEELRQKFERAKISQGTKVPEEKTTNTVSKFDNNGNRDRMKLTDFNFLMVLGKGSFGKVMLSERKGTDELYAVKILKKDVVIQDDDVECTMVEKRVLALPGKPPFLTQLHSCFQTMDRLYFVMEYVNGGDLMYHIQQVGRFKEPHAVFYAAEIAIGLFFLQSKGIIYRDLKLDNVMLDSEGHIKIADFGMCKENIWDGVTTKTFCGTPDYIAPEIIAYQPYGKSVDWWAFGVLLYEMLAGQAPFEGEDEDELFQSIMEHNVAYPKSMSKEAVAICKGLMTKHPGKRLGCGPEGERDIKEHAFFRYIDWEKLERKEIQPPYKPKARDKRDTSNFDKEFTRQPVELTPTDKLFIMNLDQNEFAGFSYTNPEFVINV

[25] = biological target: Protein kinase C gamma type (Homo sapiens, UniProt P05129); assay: Inhibition of human wild type PKC gamma using 3xChocktide-PKC(19to 31) as substrate preincubated for 2 hrs followed by ATP addition and measured every 2 mins for […] by spectrophotometric analysis
[26] = biological target: Macrophage colony-stimulating factor 1 receptor (Homo sapiens, UniProt P07333); assay: Inhibition of human wild type FMS using PolyEY as substrate preincubated for 2 hrs followed by ATP addition and measured every 2 mins for […] by spectrophotometric analysis
[27] = tested on: BaF3; assay: Antileukemic activity against mouse BaF3 cells harbouring BCR-ABL1 T315I mutant transduced with 5-FU treated bone marrow xenografted in Balb/c mouse assessed as improvement in circulating leukocyte count at 100 mg/kg, po administered once daily measured upto 56 days; format: functional, organism-based; conditions: time <= 56.0 day

Testis-specific serine/threonine-protein kinase 2, sequence (Q96PF2 whole entry): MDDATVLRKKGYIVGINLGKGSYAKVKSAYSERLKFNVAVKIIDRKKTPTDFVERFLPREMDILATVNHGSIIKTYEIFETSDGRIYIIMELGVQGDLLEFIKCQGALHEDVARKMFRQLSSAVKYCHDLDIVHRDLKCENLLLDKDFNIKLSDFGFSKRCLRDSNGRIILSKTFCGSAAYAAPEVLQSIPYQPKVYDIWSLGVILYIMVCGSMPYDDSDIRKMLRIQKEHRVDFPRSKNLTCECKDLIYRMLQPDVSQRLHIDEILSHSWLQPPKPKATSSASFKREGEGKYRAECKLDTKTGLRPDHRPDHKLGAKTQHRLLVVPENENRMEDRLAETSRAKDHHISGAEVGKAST

Q: With CNC(=O)c1cc(Oc2ccc(NC(=O)Nc3cc(C(C)(C)C)nn3-c3ccc4ncccc4c3)c(F)c2)ccn1 [REBASTINIB] as the molecule, how does the IC50 [1] read?
A: Its IC50 is over 1 µM.

Q: And the IC50 [2]?
A: The IC50 was over 1 µM.

Q: What about the IC50 [3] of the same molecule?
A: The IC50 was 0.025 µM.

Q: What about the IC50 [4] of the same molecule?
A: Its IC50 is over 1 µM.

Q: And the IC50 [5]?
A: The IC50 was over 1 µM.

Q: What about the IC50 [6] of the same molecule?
A: Its IC50 is over 1 µM.

Q: What about the IC50 [7] of the same molecule?
A: The IC50 was 0.25 µM.

Q: And the IC50 [8]?
A: Its IC50 is over 1 µM.

Q: And the IC50 [9]?
A: The IC50 was over 1 µM.

Q: And the IC50 [10]?
A: Its IC50 is over 1 µM.

Q: What about the IC50 [11] of the same molecule?
A: The IC50 was over 1 µM.

Q: And the IC50 [12]?
A: Its IC50 is 0.006 µM.

Q: What about the inhibition [13] of the same molecule?
A: The inhibition was “Active”.

Q: What about the IC50 [14] of the same molecule?
A: The IC50 was over 1 µM.

Q: What about the IC50 [15] of the same molecule?
A: Its IC50 is over 1 µM.

Q: What about the IC50 [16] of the same molecule?
A: The IC50 was over 1 µM.

Q: What about the IC50 [17] of the same molecule?
A: Its IC50 is over 1 µM.

Q: What about the IC50 [18] of the same molecule?
A: The IC50 was over 1 µM.

Q: And the IC50 [19]?
A: Its IC50 is over 1 µM.

Q: What about the IC50 [20] of the same molecule?
A: Its IC50 is over 1 µM.

Q: What about the IC50 [21] of the same molecule?
A: The IC50 was over 1 µM.

Q: And the IC50 [22]?
A: Its IC50 is 0.34 µM.

Q: And the IC50 [23]?
A: Its IC50 is over 1 µM.

Q: What about the IC50 [24] of the same molecule?
A: Its IC50 is over 1 µM.

Q: What about the IC50 [25] of the same molecule?
A: The IC50 was over 1 µM.

Q: And the IC50 [26]?
A: The IC50 was 0.62 µM.

Q: What about the Activity [27] of the same molecule?
A: Its Activity is “Active”.
